This is an account of results in patent US20160271155A1, “Vitamin Formulations” (NESTEC S.A., priority 2013, published 2016).

The nature of series [1]: Particle size of B9:stevioside solutions. In kind it is physicochemical. As to conditions: Homogenization for 5 min and heat at 80° for 5 min; no unit in table (b98 speaks of nm). From the text: In certain instances, the stevioside: B9 complex comprises a nanoparticle, or a nanomicelle, with a characteristic size distribution of approximately 2 nm to about 4 nanometers. This size, along with their physical and chemical properties, is believed to be important regarding their bioavailability enhancement properties. Nanoparticle size distribution can be measured using Dynamic Light Scattering (DLS).

The subject of another series is Caco-2 cell monolayer. The series is described as follows: Absorption assessment in Caco-2 cell monolayer. Format: in vitro ADME. From the text: The Caco-2 cell monolayer model is the standard for predicting human oral absorption. The test samples included: B9:stevioside at 1:0; 1:4; 1:10 and 1:20.
Table 4 tabulates the permeability of methylfolate calcium (B9) in Caco-2 monolayer cell culture.

A short description of series [2]: Absorption assessment in a rat model (oral pharmacokinetics). Format: in vivo, Sprague Dawley rat. As to conditions: rats, oral gavage. The text has this: Each group (formulation) had 8 rats (n=8).
Vertical bars represent one standard error of the means (n=8).
The table contains various pharmacokinetic parameters in rats orally administered with various methylfolate Ca (B9) formulations. Shown as Average±SD (% over the 1:0 control formulation).

The nature of series [3]: Concentration of B9 in water and solution appearance at B9:stevioside ratios (HPLC). As to conditions: for Solution Appearance: 15 mg/mL B9 in water.
Protocol: Vitamin B9 (5-methyl folate, MW 459.46) was formulated using stevioside to form a complex.
All water solutions were prepared to contain 15 mg/mL B9 and filtered before HPLC analysis.
Setting [4] is: dose equivalent to 19 mg/70 kg person, n=8, Average±SD.

The structures appear in SMILES notation.

Turning to `CN1c2c(nc(N)[nH]c2=O)NCC1CNc1ccc(C(=O)N[C@@H](CCC(=O)[O-])C(=O)O)cc1.CN1c2c(nc(N)[nH]c2=O)NCC1CNc1ccc(C(=O)N[C@@H](CCC(=O)[O-])C(=O)O)cc1.[Ca+2]` (stereo partly drawn) [B9:ST 1:0], in series [1], the “Particle Size MN” value is reported as 1,865 and the “Particle Size MV” value is 1,917. Besides, the “permeability in Caco-2 cell monolayer assay” value in the series on Caco-2 cell monolayer (Caco-2 monolayer) is “permeable”. Besides, the “Permeation enhancement (over 1:0)” value in the series with Caco-2 cell monolayer (Caco-2 monolayer, 76 μg/mL B9, 2 hr) is 1.00. In addition, in the series on Caco-2 cell monolayer (Caco-2 monolayer, 76 μg/mL B9, assay duration 2 hr), the “Papp (A-B)” value is given as 5.89 ± 0.245 10^−6 · cm· s^−1. Also, the predicted oral absorption with Caco-2 cell monolayer (predicted from the Caco-2 value) is 70-80%. In addition, in the series on Caco-2 cell monolayer (text summary of Table 4, unit not given), the “Caco-2 value (rounded)” value turned out to be 6. Also, in series [2] (19 mg/70 kg person equivalent), the “AUC0-∞, % over the 1:0 control formulation” value is reported as “(100) %”; the “AUC^0-12, % over the 1:0 control formulation” value was “(100) %”; the “CL, % over the 1:0 control formulation” value is “(100) %”; the “Cmax, % over the 1:0 control formulation” value was “(100) %”. In series [2] (19 mg/70 kg person equivalent), the “MRT0-∞, % over the 1:0 control formulation” value is given as “(100) %”; the “T1/2, % over the 1:0 control formulation” value is on record as “(100) %”; the “Tmax, % over the 1:0 control formulation” value is reported as “(100) %”; the “Vss, % over the 1:0 control formulation” value is given as “(100) %”. Moreover, in series [2] (setting [4]), the CL came out at 0.69 ± 0.06 mL/h kg^−1, the peak concentration (Cmax) is 0.63 ± 0.04955 µg/mL, the “MRT0-∞” value was found to be 12.41 ± 2.40 h and the T1/2 is listed as 8.60 ± 1.92 h. Moreover, in series [2] (setting [4]), the Tmax amounted to 1.59 ± 0.36 h and the Vss came out at 0.0077 ± 0.00095 L/kg. Further, the “Solution Appearance” value in series [3] (Homogenization for 5 min and heat at 80° for 5 min) was “Suspension”. Also, the “Concentration (mg/mL in water)” value in series [3] (Homogenization for 5 min and heat at 80° for 5 min, prepared to contain 15 mg/mL B9, filtered before HPLC) was found to be 9.2 mg/mL. In series [3] (No homogenization or heat), the “Solution Appearance” value is listed as “Suspension”.

As usually defined, the Cmax is the highest concentration seen after dosing. The Tmax is the time from dosing to the highest level.
